According to publication PMC4300089, “Structure-Guided Design of Selective Epac1 and Epac2 Agonists” (PLoS Biology, 2015):

Key:
Epac2^fl = biological target: T1, Epac2^fl (Mus musculus, UniProt Q9EQZ6); experiment: Epac activation assay, full length Epac2; format: biochemical; set-up: made in house; details: for Rel. kmax: maximal activity relative to cAMP
T1 sequence (Q9EQZ6 1-993 isoform Q9EQZ6-3): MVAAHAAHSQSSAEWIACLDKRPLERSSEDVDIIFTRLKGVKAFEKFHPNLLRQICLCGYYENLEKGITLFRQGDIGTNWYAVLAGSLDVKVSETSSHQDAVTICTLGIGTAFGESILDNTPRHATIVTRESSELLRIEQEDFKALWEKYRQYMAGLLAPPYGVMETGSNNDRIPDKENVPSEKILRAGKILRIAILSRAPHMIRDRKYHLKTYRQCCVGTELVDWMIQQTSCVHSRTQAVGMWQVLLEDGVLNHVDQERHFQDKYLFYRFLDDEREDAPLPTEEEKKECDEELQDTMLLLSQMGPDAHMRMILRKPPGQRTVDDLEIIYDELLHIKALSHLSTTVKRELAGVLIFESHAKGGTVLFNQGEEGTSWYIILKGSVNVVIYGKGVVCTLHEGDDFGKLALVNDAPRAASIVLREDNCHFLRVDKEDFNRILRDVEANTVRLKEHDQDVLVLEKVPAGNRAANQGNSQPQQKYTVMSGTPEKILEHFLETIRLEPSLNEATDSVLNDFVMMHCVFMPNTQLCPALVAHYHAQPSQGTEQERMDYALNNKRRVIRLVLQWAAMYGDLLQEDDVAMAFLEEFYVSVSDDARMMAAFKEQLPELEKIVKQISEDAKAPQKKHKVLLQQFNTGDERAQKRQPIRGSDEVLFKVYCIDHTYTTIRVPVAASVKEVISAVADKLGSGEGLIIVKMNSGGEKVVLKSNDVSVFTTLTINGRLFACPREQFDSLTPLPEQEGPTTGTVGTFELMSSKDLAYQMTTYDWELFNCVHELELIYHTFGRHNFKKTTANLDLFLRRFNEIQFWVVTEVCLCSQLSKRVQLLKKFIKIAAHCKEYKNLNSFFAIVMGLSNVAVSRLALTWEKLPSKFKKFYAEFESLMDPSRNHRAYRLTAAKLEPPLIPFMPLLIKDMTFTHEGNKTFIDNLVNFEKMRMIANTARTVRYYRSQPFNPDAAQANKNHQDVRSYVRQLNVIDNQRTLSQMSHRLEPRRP
Procedure: Murine Epac2 was used as all previous structural studies were performed with it.
The activity of Epac was determined by a fluorescence assay. […] The fluorescence intensity of Rap1B•mGDP is approximately twice that of free mGDP, and thus, nucleotide exchange can be observed as a decay in fluorescence upon the addition of excess unlabeled GDP.

Epac1^Q270K = biological target: T2, Epac1^Q270K (Homo sapiens, UniProt O95398, Q312K); experiment: Epac activation assay, Epac1 Q270K mutant; format: biochemical
T2 construct: made in house
T2 sequence (O95398 150-881 isoform O95398-3 Q270K): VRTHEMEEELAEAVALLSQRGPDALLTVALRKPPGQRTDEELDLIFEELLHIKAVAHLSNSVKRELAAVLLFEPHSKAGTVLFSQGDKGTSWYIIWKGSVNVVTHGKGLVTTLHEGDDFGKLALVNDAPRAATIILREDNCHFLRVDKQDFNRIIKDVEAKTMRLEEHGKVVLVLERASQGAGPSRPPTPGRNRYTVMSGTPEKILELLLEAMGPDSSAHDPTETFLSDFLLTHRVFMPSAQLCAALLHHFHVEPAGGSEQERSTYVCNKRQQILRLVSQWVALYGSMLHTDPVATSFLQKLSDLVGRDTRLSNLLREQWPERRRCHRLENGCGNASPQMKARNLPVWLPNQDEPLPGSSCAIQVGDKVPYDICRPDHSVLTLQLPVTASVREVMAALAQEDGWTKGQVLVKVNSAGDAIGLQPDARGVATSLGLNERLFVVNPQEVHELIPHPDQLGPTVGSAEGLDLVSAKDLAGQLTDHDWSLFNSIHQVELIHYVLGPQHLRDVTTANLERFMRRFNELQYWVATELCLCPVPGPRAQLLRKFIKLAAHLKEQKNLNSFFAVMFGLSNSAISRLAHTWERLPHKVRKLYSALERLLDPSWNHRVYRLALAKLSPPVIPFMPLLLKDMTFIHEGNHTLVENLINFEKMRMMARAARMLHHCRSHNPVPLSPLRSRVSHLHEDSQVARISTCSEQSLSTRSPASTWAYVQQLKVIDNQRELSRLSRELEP

primary human islets = experiment: Insulin secretion assay in primary human islets; format: cell-based; details: 25 to 100 μM; compared with Forskolin/IBMX
Procedure: Islets were isolated from two human donor pancreases. Intact islets (n = 20 per well) were seeded on ultra-low attachment 96-well plate. After 3 days of culture, the pancreatic islets were washed two times with 115 mM NaCl, 5 mM KCl, 24 mM NaHCO3, 2.2 mM CaCl2, 1 mM MgCl2, 20 mM HEPES, and 0.2% human serum albumin (incubation buffer) and primed for 1.5 h at 37°C in incubation buffer supplemented with 2 mM glucose (low glucose). Subsequently, the cells were incubated in fresh incubation buffer supplemented with 2 mM glucose for 1 h to measure the basal insulin secretion levels. […] The cell supernatants were collected immediately after incubation with low and high glucose. The insulin concentrations were measured by ELISA (Insulin ELISA Kit, Mercodia). The insulin secretion was expressed as the ratio of insulin concentration at high and low glucose concentrations for each well (insulin secretion index).

SMILES	kobs (Epac2^fl; 0.3 μM compound) [s⁻¹]	kobs (Epac2^fl; 0.5 μM compound) [s⁻¹]	kobs (Epac2^fl; 0.8 μM compound) [s⁻¹]	kobs (Epac2^fl; 1 μM compound) [s⁻¹]	kobs (Epac2^fl; 2 μM compound) [s⁻¹]	kobs (Epac2^fl; 3 μM compound) [s⁻¹]	kobs (Epac2^fl; 4 μM compound) [s⁻¹]	kobs (Epac2^fl; 5 μM compound) [s⁻¹]	kobs (Epac2^fl; 6 μM compound) [s⁻¹]	kobs (Epac2^fl; 7 μM compound) [s⁻¹]	kobs (Epac2^fl; 8 μM compound) [s⁻¹]	kobs (Epac2^fl; 10 μM compound) [s⁻¹]	kobs (Epac2^fl; 20 μM compound) [s⁻¹]	kobs (Epac2^fl; 30 μM compound) [s⁻¹]	kobs (Epac2^fl; 40 μM compound) [s⁻¹]	kobs (Epac2^fl; 50 μM compound) [s⁻¹]	kobs (Epac2^fl; 60 μM compound) [s⁻¹]	kobs (Epac2^fl; 70 μM compound) [s⁻¹]	kobs (Epac2^fl; 80 μM compound) [s⁻¹]	kobs (Epac2^fl; 100 μM compound) [s⁻¹]	also measured
COC1C2OP(=O)(O)OCC2OC1n1c(Sc2ccc(Cl)cc2)nc2c(N)ncnc21 [D-007, 8-pCPT-2′-O-Me-cAMP, reference compound]	1.59e-05	1.62e-05	1.75e-05	1.95e-05	2.18e-05	2.37e-05	2.69e-05	2.86e-05	3.39e-05	3.51e-05	3.74e-05	4.22e-05	5.69e-05	7e-05	7.51e-05	7.76e-05	8.43e-05	8.92e-05	9.01e-05	9.57e-05	kobs (Epac2^fl; 200 μM compound): 9.52e-05 s⁻¹; kobs (Epac2^fl; 400 μM compound): 9.57e-05 s⁻¹; kobs (Epac2^fl; 600 μM compound): 9.06e-05 s⁻¹; kobs (Epac2^fl; 800 μM compound): 8.29e-05 s⁻¹; ability to reach half-maximal cAMP activity (Epac2^fl; Epac2): reaches half-maximal cAMP activity with Epac2 only under saturating conditions; AC50 (Epac2^fl; Epac2^fl): 16 µM; Rel. kmax (Epac2^fl; Epac2^fl): 0.4; activation (Epac1^Q270K): poorly activated
Cc1ccc(CSc2nc3c(N)ncnc3n2[C@@H]2O[C@@H]3CO[P@](O)(=S)O[C@H]3[C@H]2O)cc1 [S-230, Sp-8-pMeBnT-cAMPS]	2.9e-05	3.3e-05	4.1e-05	4.7e-05	8.9e-05	0.000128	0.000139	0.000145	0.000194	0.000209	0.000213	0.000238	0.000358	0.000429	0.000467	0.000491	0.000519	0.00055	0.000558	0.000582	kobs (Epac2^fl; 0.2 μM compound): 2.5e-05 s⁻¹; kobs (Epac2^fl; 0.4 μM compound): 3.1e-05 s⁻¹; kobs (Epac2^fl; 0.6 μM compound): 3.6e-05 s⁻¹; kobs (Epac2^fl; 0.7 μM compound): 4e-05 s⁻¹; kobs (Epac2^fl; 200 μM compound): 0.000643 s⁻¹; kobs (Epac2^fl; 400 μM compound): 0.00061 s⁻¹; kobs (Epac2^fl; 600 μM compound): 0.000556 s⁻¹; kobs (Epac2^fl; 800 μM compound): 0.000527 s⁻¹
Nc1ncnc2c1nc(SCc1ccccc1)n2[C@@H]1O[C@@H]2CO[P@](O)(=S)O[C@H]2[C@H]1O [S-220, Sp-8-BnT-cAMPS]	0.000217	0.000295	0.000428	0.000509	0.000819	0.000975	0.00102	0.0011	0.00114	0.00118	0.00118	0.00125	0.00149	0.00153	0.00152	0.0015	0.00155	0.00155	0.00152	0.0015	kobs (Epac2^fl; 0.001 μM compound): 1.9e-05 s⁻¹; kobs (Epac2^fl; 0.03 μM compound): 4.4e-05 s⁻¹; kobs (Epac2^fl; 0.04 μM compound): 4.9e-05 s⁻¹; kobs (Epac2^fl; 0.05 μM compound): 5.4e-05 s⁻¹; kobs (Epac2^fl; 0.06 μM compound): 6e-05 s⁻¹; kobs (Epac2^fl; 0.07 μM compound): 6.8e-05 s⁻¹; kobs (Epac2^fl; 0.08 μM compound): 6.9e-05 s⁻¹; kobs (Epac2^fl; 0.1 μM compound): 9.1e-05 s⁻¹; kobs (Epac2^fl; 0.2 μM compound): 0.00016 s⁻¹; kobs (Epac2^fl; 0.4 μM compound): 0.000258 s⁻¹; kobs (Epac2^fl; 0.6 μM compound): 0.000369 s⁻¹; kobs (Epac2^fl; 0.7 μM compound): 0.000402 s⁻¹; AC50 (Epac2^fl; Epac2^fl): 2.1 µM; potency relative to cAMP by activation potential (times more potently than cAMP) (Epac2^fl; Epac2^fl): 200 times; Rel. kmax (Epac2^fl; Epac2^fl): 6.6; glucose-induced insulin secretion (primary human islets): potentiates glucose-induced insulin secretion with similar efficiency
